Values after ≈ are worked out from the molar mass of the structure shown.
Experiments:
Type in all cases: functional
Bacillus pumilus [1] = assay: Antibacterial activity against Bacillus pumilus MTCC 1456 at 250 ug/ml after 48 hr by cup-plate method; settings: MTCC 1456, 48 h, read-out: DIZ
Escherichia coli [2] = assay: Antibacterial activity against Escherichia coli MTCC 1573 at 1250 ug/ml after 48 hr by cup-plate method; settings: MTCC 1573, 48 h, read-out: DIZ
Bacillus pumilus [3] = assay: Antibacterial activity against Bacillus pumilus MTCC 1456 after 24 to 48 hr by tube dilution method
Penicillium chrysogenum [4] = assay: Antifungal activity against Penicillium chrysogenum MTCC 161 at 500 ug/ml after 48 hr by cup-plate method; settings: MTCC 161, 48 h, read-out: DIZ
Bacillus subtilis [5] = assay: Antibacterial activity against Bacillus subtilis MTCC 441 at 250 ug/ml after 48 hr by cup-plate method; settings: MTCC 441, 48 h, read-out: DIZ
Pseudomonas aeruginosa [6] = assay: Antibacterial activity against Pseudomonas aeruginosa MTCC 424 at 500 ug/ml after 48 hr by cup-plate method; settings: MTCC 424, 48 h, read-out: DIZ
Escherichia coli [7] = assay: Antibacterial activity against Escherichia coli MTCC 1573 at 1000 ug/ml after 48 hr by cup-plate method; settings: MTCC 1573, 48 h, read-out: DIZ
Bacillus pumilus [8] = assay: Antibacterial activity against Bacillus pumilus MTCC 1456 at 1250 ug/ml after 48 hr by cup-plate method; settings: MTCC 1456, 48 h, read-out: DIZ
Pseudomonas aeruginosa [9] = assay: Antibacterial activity against Pseudomonas aeruginosa MTCC 424 after 24 to 48 hr by tube dilution method
Bacillus subtilis [10] = assay: Antibacterial activity against Bacillus subtilis MTCC 441 at 750 ug/ml after 48 hr by cup-plate method; settings: MTCC 441, 48 h, read-out: DIZ
Staphylococcus aureus [11] = assay: Antibacterial activity against Staphylococcus aureus MTCC 1430 at 1000 ug/ml after 48 hr by cup-plate method; settings: MTCC 1430, 48 h, read-out: DIZ
Penicillium chrysogenum [12] = assay: Antifungal activity against Penicillium chrysogenum MTCC 161 after 24 to 48 hr by tube dilution method
Micrococcus luteus [13] = assay: Antibacterial activity against Micrococcus luteus MTCC 1538 at 750 ug/ml after 48 hr by cup-plate method; settings: MTCC 1538, 48 h, read-out: DIZ
Aspergillus niger [14] = assay: Antifungal activity against Aspergillus niger MTCC 2546 at 250 ug/ml after 48 hr by cup-plate method; settings: MTCC 2546, 48 h, read-out: DIZ
Aspergillus niger [15] = assay: Antifungal activity against Aspergillus niger MTCC 2546 after 24 to 48 hr by tube dilution method
Pseudomonas fluorescens [16] = assay: Antibacterial activity against Pseudomonas fluorescens MTCC 2421 after 24 to 48 hr by tube dilution method
Pseudomonas aeruginosa [17] = assay: Antibacterial activity against Pseudomonas aeruginosa MTCC 424 at 1250 ug/ml after 48 hr by cup-plate method; settings: MTCC 424, 48 h, read-out: DIZ
Penicillium chrysogenum [18] = assay: Antifungal activity against Penicillium chrysogenum MTCC 161 at 750 ug/ml after 48 hr by cup-plate method; settings: MTCC 161, 48 h, read-out: DIZ
Pseudomonas aeruginosa [19] = assay: Antibacterial activity against Pseudomonas aeruginosa MTCC 424 at 750 ug/ml after 48 hr by cup-plate method; settings: MTCC 424, 48 h, read-out: DIZ
Staphylococcus aureus [20] = assay: Antibacterial activity against Staphylococcus aureus MTCC 1430 at 250 ug/ml after 48 hr by cup-plate method; settings: MTCC 1430, 48 h, read-out: DIZ
Escherichia coli [21] = assay: Antibacterial activity against Escherichia coli MTCC 1573 at 750 ug/ml after 48 hr by cup-plate method; settings: MTCC 1573, 48 h, read-out: DIZ
Aspergillus niger [22] = assay: Antifungal activity against Aspergillus niger MTCC 2546 at 100 ug/ml after 48 hr by cup-plate method; settings: MTCC 2546, 48 h, read-out: DIZ
Pseudomonas aeruginosa [23] = assay: Antibacterial activity against Pseudomonas aeruginosa MTCC 424 at 250 ug/ml after 48 hr by cup-plate method; settings: MTCC 424, 48 h, read-out: DIZ
Staphylococcus aureus [24] = assay: Antibacterial activity against Staphylococcus aureus MTCC 1430 at 750 ug/ml after 48 hr by cup-plate method; settings: MTCC 1430, 48 h, read-out: DIZ
Escherichia coli [25] = assay: Antibacterial activity against Escherichia coli MTCC 1573 at 500 ug/ml after 48 hr by cup-plate method; settings: MTCC 1573, 48 h, read-out: DIZ
Bacillus pumilus [26] = assay: Antibacterial activity against Bacillus pumilus MTCC 1456 at 500 ug/ml after 48 hr by cup-plate method; settings: MTCC 1456, 48 h, read-out: DIZ
Pseudomonas fluorescens [27] = assay: Antibacterial activity against Pseudomonas fluorescens MTCC 2421 at 100 ug/ml after 48 hr by cup-plate method; settings: MTCC 2421, 48 h, read-out: DIZ
Pseudomonas fluorescens [28] = assay: Antibacterial activity against Pseudomonas fluorescens MTCC 2421 at 750 ug/ml after 48 hr by cup-plate method; settings: MTCC 2421, 48 h, read-out: DIZ
Pseudomonas aeruginosa [29] = assay: Antibacterial activity against Pseudomonas aeruginosa MTCC 424 at 1000 ug/ml after 48 hr by cup-plate method; settings: MTCC 424, 48 h, read-out: DIZ
Bacillus pumilus [30] = assay: Antibacterial activity against Bacillus pumilus MTCC 1456 at 750 ug/ml after 48 hr by cup-plate method; settings: MTCC 1456, 48 h, read-out: DIZ
Aspergillus niger [31] = assay: Antifungal activity against Aspergillus niger MTCC 2546 at 500 ug/ml after 48 hr by cup-plate method; settings: MTCC 2546, 48 h, read-out: DIZ
Bacillus subtilis [32] = assay: Antibacterial activity against Bacillus subtilis MTCC 441 at 1250 ug/ml after 48 hr by cup-plate method; settings: MTCC 441, 48 h, read-out: DIZ
Micrococcus luteus [33] = assay: Antibacterial activity against Micrococcus luteus MTCC 1538 at 1250 ug/ml after 48 hr by cup-plate method; settings: MTCC 1538, 48 h, read-out: DIZ
Bacillus pumilus [34] = assay: Antibacterial activity against Bacillus pumilus MTCC 1456 at 1000 ug/ml after 48 hr by cup-plate method; settings: MTCC 1456, 48 h, read-out: DIZ
Bacillus subtilis [35] = assay: Antibacterial activity against Bacillus subtilis MTCC 441 at 100 ug/ml after 48 hr by cup-plate method; settings: MTCC 441, 48 h, read-out: DIZ
Bacillus subtilis [36] = assay: Antibacterial activity against Bacillus subtilis MTCC 441 at 500 ug/ml after 48 hr by cup-plate method; settings: MTCC 441, 48 h, read-out: DIZ
Aspergillus niger [37] = assay: Antifungal activity against Aspergillus niger MTCC 2546 at 1000 ug/ml after 48 hr by cup-plate method; settings: MTCC 2546, 48 h, read-out: DIZ
Bacillus subtilis [38] = assay: Antibacterial activity against Bacillus subtilis MTCC 441 at 1000 ug/ml after 48 hr by cup-plate method; settings: MTCC 441, 48 h, read-out: DIZ
Bacillus pumilus [39] = assay: Antibacterial activity against Bacillus pumilus MTCC 1456 at 100 ug/ml after 48 hr by cup-plate method; settings: MTCC 1456, 48 h, read-out: DIZ
Escherichia coli [40] = assay: Antibacterial activity against Escherichia coli MTCC 1573 after 24 to 48 hr by tube dilution method
Penicillium chrysogenum [41] = assay: Antifungal activity against Penicillium chrysogenum MTCC 161 at 1000 ug/ml after 48 hr by cup-plate method; settings: MTCC 161, 48 h, read-out: DIZ
Escherichia coli [42] = assay: Antibacterial activity against Escherichia coli MTCC 1573 at 100 ug/ml after 48 hr by cup-plate method; settings: MTCC 1573, 48 h, read-out: DIZ
Staphylococcus aureus [43] = assay: Antibacterial activity against Staphylococcus aureus MTCC 1430 at 1250 ug/ml after 48 hr by cup-plate method; settings: MTCC 1430, 48 h, read-out: DIZ
Penicillium chrysogenum [44] = assay: Antifungal activity against Penicillium chrysogenum MTCC 161 at 100 ug/ml after 48 hr by cup-plate method; settings: MTCC 161, 48 h, read-out: DIZ
Micrococcus luteus [45] = assay: Antibacterial activity against Micrococcus luteus MTCC 1538 at 1000 ug/ml after 48 hr by cup-plate method; settings: MTCC 1538, 48 h, read-out: DIZ

In the case of `O=[N+]([O-])c1ccc(C2CC(c3cccc4ccccc34)=NN2c2ccccc2[N+](=O)[O-])cc1` (stereo not given), the zone of inhibition at 250 µg/mL (Bacillus pumilus [1]) was 11 mm, the zone of inhibition at 1250 µg/mL (Escherichia coli [2]) was 20 mm and the MIC (Bacillus pumilus [3]) was 30 µg/mL (≈ 68.4 µM). The zone of inhibition at 500 µg/mL (Penicillium chrysogenum [4]) was 15 mm, the zone of inhibition at 250 µg/mL (Bacillus subtilis [5]) was 13 mm and the zone of inhibition at 500 µg/mL (Pseudomonas aeruginosa [6]) was 15 mm. The zone of inhibition at 1000 µg/mL (Escherichia coli [7]) was 17 mm, the zone of inhibition at 1250 µg/mL (Bacillus pumilus [8]) was 25 mm and the MIC (Pseudomonas aeruginosa [9]) was 150 µg/mL (≈ 342 µM). The zone of inhibition at 750 µg/mL (Bacillus subtilis [10]) was 15 mm, the zone of inhibition at 1000 µg/mL (Staphylococcus aureus [11]) was 13 mm and the MIC (Penicillium chrysogenum [12]) was 30 µg/mL (≈ 68.4 µM). The zone of inhibition at 750 µg/mL (Micrococcus luteus [13]) was 13 mm, the zone of inhibition at 250 µg/mL (Aspergillus niger [14]) was 11 mm and the MIC (Aspergillus niger [15]) was 30 µg/mL (≈ 68.4 µM). For the same compound, the MIC (Pseudomonas fluorescens [16]) was 30 µg/mL (≈ 68.4 µM), the zone of inhibition at 1250 µg/mL (Pseudomonas aeruginosa [17]) was 18 mm and the zone of inhibition at 750 µg/mL (Penicillium chrysogenum [18]) was 20 mm. It also gave a zone of inhibition at 750 µg/mL (Pseudomonas aeruginosa [19]) of 16 mm, a zone of inhibition at 250 µg/mL (Staphylococcus aureus [20]) of 9 mm and a zone of inhibition at 750 µg/mL (Escherichia coli [21]) of 13 mm. The zone of inhibition at 100 µg/mL (Aspergillus niger [22]) was 10 mm, the zone of inhibition at 250 µg/mL (Pseudomonas aeruginosa [23]) was 14 mm and the zone of inhibition at 750 µg/mL (Staphylococcus aureus [24]) was 12 mm. For the same compound, the zone of inhibition at 500 µg/mL (Escherichia coli [25]) was 11 mm, the zone of inhibition at 500 µg/mL (Bacillus pumilus [26]) was 12 mm and the zone of inhibition at 100 µg/mL (Pseudomonas fluorescens [27]) was 10 mm. The zone of inhibition at 750 µg/mL (Pseudomonas fluorescens [28]) was 18 mm, the zone of inhibition at 1000 µg/mL (Pseudomonas aeruginosa [29]) was 17 mm and the zone of inhibition at 750 µg/mL (Bacillus pumilus [30]) was 18 mm. The zone of inhibition at 500 µg/mL (Aspergillus niger [31]) was 12 mm, the zone of inhibition at 1250 µg/mL (Bacillus subtilis [32]) was 17 mm and the zone of inhibition at 1250 µg/mL (Micrococcus luteus [33]) was 17 mm. It also gave a zone of inhibition at 1000 µg/mL (Bacillus pumilus [34]) of 23 mm, a zone of inhibition at 100 µg/mL (Bacillus subtilis [35]) of 12 mm and a zone of inhibition at 500 µg/mL (Bacillus subtilis [36]) of 14 mm. It also gave a zone of inhibition at 1000 µg/mL (Aspergillus niger [37]) of 23 mm, a zone of inhibition at 1000 µg/mL (Bacillus subtilis [38]) of 16 mm and a zone of inhibition at 100 µg/mL (Bacillus pumilus [39]) of 10 mm. It also gave an MIC (Escherichia coli [40]) of 30 µg/mL (≈ 68.4 µM), a zone of inhibition at 1000 µg/mL (Penicillium chrysogenum [41]) of 24 mm and a zone of inhibition at 100 µg/mL (Escherichia coli [42]) of 9 mm. The zone of inhibition at 1250 µg/mL (Staphylococcus aureus [43]) was 15 mm, the zone of inhibition at 100 µg/mL (Penicillium chrysogenum [44]) was 13 mm and the zone of inhibition at 1000 µg/mL (Micrococcus luteus [45]) was 15 mm.

Source: ChEMBL document CHEMBL3044945, “Synthesis of 1,3,5-trisubstituted pyrazoline nucleus containing compounds and screening for antimicrobial activity” (2012)
